Measurements as given in patent publication US20050074867A1, “Preservation of competent cells at ambient temperatures” (priority 2001, published 2005).

Test system: logarithmic E. coli cells
Assay: Preservation survival and stability of logarithmic E. coli cells loaded in vitro before foam drying
Type: cell-based
Conditions: for Preservation Yield (Day 0) % Survival / Preservation Yield (Day 0) Cfu/ml / Stability (Day 7 at RT) % Survival / Stability (Day 7 at RT) Cfu/ml / Stability (Day 14) % Survival / Stability (Day 14) Cfu/ml: loaded with 10% MAG at 37° C. for 30 minutes
Protocol: (3) Loading of fresh electrocompetent E. coli cells before preservation: When applicable, one aliquot of the cell concentrate (3.2 ml of cells in PBS buffer, approx. 2×10^10 cfu/ml) was mixed with 0.8 ml of 50% methyl-glucoside (MAG; 10% final concentration) and incubated at 37° C. for 30 minutes (in vitro loading). A second aliquot (3.2 ml of the cell concentrate) was mixed with 0.8 ml of PBS buffer and incubated on ice for 30 minutes (control, unloaded cells). Similar to loading with MAG, the cells were loaded with 2-deoxyglucose (2-DOG) as described in Example 5 infra.
(4) Preservation of electrocompetent E. coli cells: The cells (resuspended in PBS buffer or on 20% sucrose) were mixed with an equal mass of preservation solution consisting of 45% 2:1 sucrose:raffinose or 45% 4:1 sucrose:MAG on ice. Altematively, the cell pellets were resuspended directly in 22.5% sucrose:raffinose or 22.5% 4:1 sucrose:MAG. The 0.5 g aliquots were distributed in 5 ml glass serum vials or 0.2 g aliquots were distributed in 1.2 ml glass serum vials. To determine the survival in preservation solution before drying, cell-containing mixtures were diluted in PBS buffer containing 20% sucrose and appropriate dilutions were spread plated in duplicate on L-agar plates.
The samples were dried by foam formation. The mixtures were foamed at 0° C. and kept at that temperature until foam formation occurred. After foam was well formed, shelf temperature was increased to 20° C. and drying continued overnight (at least 12 hours).
(5) Assaying the preserved E. coli cells: Dried samples were rehydrated at room temperature. 1 ml of rehydration solution (20% sucrose) was added to the 5 ml vials and 0.2 ml was added to the 1.2 ml vials. For the determination of preservation survival, rehydrated cells were diluted and spread plated in duplicate on L-agar plates. Plates were incubated at 37° C. overnight and colonies were counted the following day.
Bacterial culture was grown until OD550=0.5 was reached (mid-log growth stage). The cell concentrates were prepared as described previously. Control cells, which were not loaded, were incubated on ice for 30 minutes. Cell concentrates were incubated with different amounts (0.15-1%, 5%, 10% and 15%) of glucose and glucose nonmetabolizable analogs at 37° C. for 30 minutes (loading). These mixtures were preserved as described previously.
Accumulation of MAG in the cells prior to drying enhances preservation of logarithmic E. coli cells. Two cell concentrates (harvested at mid-log growth stage) were prepared as described previously. To induce uptake of MAG, 0.5% glucose was added to the growth medium (“induced culture”). Both concentrates were incubated with 10% MAG at 37° C. for 30 minutes (loading). When loading was completed, one concentrate was diluted 100-fold in PBS buffer and incubated at 37° C. for an additional 30 minutes to induce expulsion of the pre-accumulated MAG. Both concentrates were preserved as described previously.
Mid-logarithmic culture was prepared as described previously. 0.5% glucose was added to the growth medium (“induced cells”). The culture was concentrated 10-fold and the concentrates were incubated for 30 minutes with 10% MAG at different temperatures (0, 20, 40, and 60° C.). The mixtures were preserved as described previously.
Effect of incubation time on accumulation of MAG in logarithmic E. coli cells. Cell concentrates were prepared as described previously (0.5% glucose was added to the growth medium) and incubated with 10% MAG at 37° C. for 0, 2.5, 5, 15, 30, and 60 minutes. The mixtures were preserved as described previously.
Effect of growth stage on accumulation of MAG in E. coli cells. E. coli cultures were grown in L-broth with 0.5% glucose as described previously and harvested at OD550=0.1 (early-log), 0.5 (mid-log), 1.0 (late-log) and 2.0 (stationary cells). The cells in each culture were concentrated and split in two aliquots. […]

[1] = 10% MAG at 37° C., Incubated for 0 min
[2] = 10% MAG at 37° C., Incubated for 2.5 min
[3] = 10% MAG at 37° C., Incubated for 5 min
[4] = 10% MAG at 37° C., Incubated for 15 min
[5] = 10% MAG at 37° C., Incubated for 30 min
[6] = 10% MAG at 37° C., Incubated for 60 min
[7] = 10% MAG for 30 minutes, Loaded at 0° C.
[8] = 10% MAG for 30 minutes, Loaded at 20° C.
[9] = 10% MAG for 30 minutes, Loaded at 40° C.
[10] = 10% MAG for 30 minutes, Loaded at 60° C.

## COC1OC(CO)C(O)C(O)C1O (centres unmarked) [MAG, a-methyl-glucoside]
[1]
  Preservation Yield % Survival: 2.6 +/− 0.8%
  Preservation Yield Cfu/ml: 5.3 × 10^7 +/− 1.7 × 10^7 Cfu/ml
  Stability (7 days at RT) % Survival: 1.2 +/− 0.7%
  Stability (7 days at RT) Cfu/ml: 2.4 × 10^7 Cfu/ml
  Stability (17 days at RT) % Survival: 1.8 +/− 0.5%
  Stability (17 days at RT) Cfu/ml: 3.6 × 10^7 Cfu/ml
[2]
  Preservation Yield % Survival: 5.8 +/− 1.1%
  Preservation Yield Cfu/ml: 1.2 × 10^8 +/− 2.1 × 10^7 Cfu/ml
  Stability (7 days at RT) % Survival: 4.9 +/− 0.8%
  Stability (7 days at RT) Cfu/ml: 9.6 × 10^7 Cfu/ml
  Stability (17 days at RT) % Survival: 2.9 +/− 0.6%
  Stability (17 days at RT) Cfu/ml: 5.9 × 10^7 Cfu/ml
[3]
  Preservation Yield % Survival: 9.9 +/− 0.6%
  Preservation Yield Cfu/ml: 2.0 × 10^8 +/− 1.1 × 10^7 Cfu/ml
  Stability (7 days at RT) % Survival: 6.8 +/− 1.2%
  Stability (7 days at RT) Cfu/ml: 1.4 × 10^8 Cfu/ml
  Stability (17 days at RT) % Survival: 9.5 +/− 2.7%
  Stability (17 days at RT) Cfu/ml: 1.9 × 10^8 Cfu/ml
[4]
  Preservation Yield % Survival: 16.8 +/− 2.8%
  Preservation Yield Cfu/ml: 3.4 × 10^8 +/− 5.6 × 10^7 Cfu/ml
  Stability (7 days at RT) % Survival: 10.4 +/− 0.4%
  Stability (7 days at RT) Cfu/ml: 2.1 × 10^8 Cfu/ml
  Stability (17 days at RT) % Survival: 11.8 +/− 2.6%
  Stability (17 days at RT) Cfu/ml: 2.4 × 10^8 Cfu/ml
[5]
  Preservation Yield % Survival: 19.9 +/− 2.2%
  Preservation Yield Cfu/ml: 4.0 × 10^8 +/− 4.4 × 10^7 Cfu/ml
  Stability (7 days at RT) % Survival: 13.0 +/− 2.7%
  Stability (7 days at RT) Cfu/ml: 2.6 × 10^8 Cfu/ml
  Stability (17 days at RT) % Survival: 16.8 +/− 2.6%
  Stability (17 days at RT) Cfu/ml: 3.4 × 10^8 Cfu/ml
[6]
  Preservation Yield % Survival: 22.2 +/− 3.0%
  Preservation Yield Cfu/ml: 4.4 × 10^8 +/− 6.1 × 10^7 Cfu/ml
  Stability (7 days at RT) % Survival: 16.3 +/− 1.9%
  Stability (7 days at RT) Cfu/ml: 3.3 × 10^8 Cfu/ml
  Stability (17 days at RT) % Survival: 19.3 +/− 3.9%
  Stability (17 days at RT) Cfu/ml: 3.9 × 10^8 Cfu/ml
[7]
  Preservation Yield % Survival: 8.2 +/− 1.4%
  Preservation Yield Cfu/ml: 1.6 × 10^8 Cfu/ml
  Stability (9 Days at RT°) % Survival: 5.0 +/− 0.6%
  Stability (9 Days at RT°) Cfu/ml: 9.4 × 10^7 Cfu/ml
  Stability (16 Days at RT°) % Survival: 5.2 +/− 1.5%
  Stability (16 Days at RT°) Cfu/ml: 9.9 × 10^7 Cfu/ml
[8]
  Preservation Yield % Survival: 14.1 +/− 2.6%
  Preservation Yield Cfu/ml: 2.7 × 10^8 Cfu/ml
  Stability (9 Days at RT°) % Survival: 8.7 +/− 0.6%
  Stability (9 Days at RT°) Cfu/ml: 1.6 × 10^8 Cfu/ml
  Stability (16 Days at RT°) % Survival: 7.3 +/− 1.7%
  Stability (16 Days at RT°) Cfu/ml: 1.4 × 10^8 Cfu/ml
[9]
  Preservation Yield % Survival: 23.2 +/− 3.5%
  Preservation Yield Cfu/ml: 4.4 × 10^8 Cfu/ml
  Stability (9 Days at RT°) % Survival: 28.1 +/− 3.5%
  Stability (9 Days at RT°) Cfu/ml: 5.3 × 10^8 Cfu/ml
  Stability (16 Days at RT°) % Survival: 21.0 +/− 1.9%
  Stability (16 Days at RT°) Cfu/ml: 3.9 × 10^8 Cfu/ml
[10]
  Preservation Yield % Survival: 0%
  Preservation Yield Cfu/ml: 1.4 × 10^4 Cfu/ml
  Stability (9 Days at RT°) % Survival: 0%
  Stability (9 Days at RT°) Cfu/ml: 1.2 × 10^4 Cfu/ml
  Stability (16 Days at RT°) % Survival: 0%
  Stability (16 Days at RT°) Cfu/ml: 1.3 × 10^4 Cfu/ml
OD = 0.1 (early-log)
  Preservation Yield (Day 0) % Survival: 11.3 +/− 0.9%
  Preservation Yield (Day 0) Cfu/ml: 1.6 × 10^7 Cfu/ml
  Stability (Day 7 at RT) % Survival: 8.2 +/− 0.8%
  Stability (Day 7 at RT) Cfu/ml: 1.2 × 10^7 Cfu/ml
  Stability (Day 14) % Survival: 9.9 +/− 2.2%
  Stability (Day 14) Cfu/ml: 1.5 × 10^7 Cfu/ml
OD = 0.5 (mid-log)
  Preservation Yield (Day 0) % Survival: 22.2 +/− 2.9%
  Preservation Yield (Day 0) Cfu/ml: 5.5 × 10^8 Cfu/ml
  Stability (Day 7 at RT) % Survival: 21.6 +/− 4.7%
  Stability (Day 7 at RT) Cfu/ml: 5.3 × 10^8 Cfu/ml
  Stability (Day 14) % Survival: 17.4 +/− 1.2%
  Stability (Day 14) Cfu/ml: 4.3 × 10^8 Cfu/ml
OD = 1.0 (late-log)
  Preservation Yield (Day 0) % Survival: 26.3 +/− 4.7%
  Preservation Yield (Day 0) Cfu/ml: 2.3 × 10^9 Cfu/ml
  Stability (Day 7 at RT) % Survival: 36.1 +/− 7.5%
  Stability (Day 7 at RT) Cfu/ml: 3.2 × 10^9 Cfu/ml
  Stability (Day 14) % Survival: 33.0 +/− 5.7%
  Stability (Day 14) Cfu/ml: 2.9 × 10^9 Cfu/ml
OD = 2.0 (stationary cells)
  Preservation Yield (Day 0) % Survival: 38.8 +/− 5.8%
  Preservation Yield (Day 0) Cfu/ml: 2.8 × 10^9 Cfu/ml
  Stability (Day 7 at RT) % Survival: 29.9 +/− 3.6%
  Stability (Day 7 at RT) Cfu/ml: 2.1 × 10^9 Cfu/ml
  Stability (Day 14) % Survival: 35.3 +/− 7.5%
  Stability (Day 14) Cfu/ml: 2.5 × 10^9 Cfu/ml
mid-logarithmic cells loaded with 1% at 37° C. for 30 minutes
  survived drying: 12%
mid-logarithmic cells loaded with 5% at 37° C. for 30 minutes
  survived drying: 24%
